Results published in patent US20240368169A1 (priority 2021, published 2024).

Assays:
[1] = molecular target: recombinant poly(ADP-ribose) polymerase 2 (PARP2) (Homo sapiens, UniProt Q9UGN5); assay: biochemical; conditions: inhibition of PARP2 enzyme activity, chemiluminescence
[2] = molecular target: recombinant poly(ADP-ribose) polymerase 1 (PARP1) (Homo sapiens, UniProt P09874); assay: biochemical; conditions: inhibition of PARP1 enzyme activity, chemiluminescence
MDA-MB-436 cells = assay: Growth inhibition assay against BRCA mutant human breast cancer MDA-MB-436 cell line (CCK-8, 7 days); type: cell-based
[3] = results of clinical trials; cited from earlier work
[4] = tested on: TNKS1/2 (Tankyrase 1 or Tankyrase 2); conditions: compared with other PARP inhibitors, biochemical assay; cited from earlier work

Sequence of recombinant poly(ADP-ribose) polymerase 1 (PARP1) (P09874 whole entry): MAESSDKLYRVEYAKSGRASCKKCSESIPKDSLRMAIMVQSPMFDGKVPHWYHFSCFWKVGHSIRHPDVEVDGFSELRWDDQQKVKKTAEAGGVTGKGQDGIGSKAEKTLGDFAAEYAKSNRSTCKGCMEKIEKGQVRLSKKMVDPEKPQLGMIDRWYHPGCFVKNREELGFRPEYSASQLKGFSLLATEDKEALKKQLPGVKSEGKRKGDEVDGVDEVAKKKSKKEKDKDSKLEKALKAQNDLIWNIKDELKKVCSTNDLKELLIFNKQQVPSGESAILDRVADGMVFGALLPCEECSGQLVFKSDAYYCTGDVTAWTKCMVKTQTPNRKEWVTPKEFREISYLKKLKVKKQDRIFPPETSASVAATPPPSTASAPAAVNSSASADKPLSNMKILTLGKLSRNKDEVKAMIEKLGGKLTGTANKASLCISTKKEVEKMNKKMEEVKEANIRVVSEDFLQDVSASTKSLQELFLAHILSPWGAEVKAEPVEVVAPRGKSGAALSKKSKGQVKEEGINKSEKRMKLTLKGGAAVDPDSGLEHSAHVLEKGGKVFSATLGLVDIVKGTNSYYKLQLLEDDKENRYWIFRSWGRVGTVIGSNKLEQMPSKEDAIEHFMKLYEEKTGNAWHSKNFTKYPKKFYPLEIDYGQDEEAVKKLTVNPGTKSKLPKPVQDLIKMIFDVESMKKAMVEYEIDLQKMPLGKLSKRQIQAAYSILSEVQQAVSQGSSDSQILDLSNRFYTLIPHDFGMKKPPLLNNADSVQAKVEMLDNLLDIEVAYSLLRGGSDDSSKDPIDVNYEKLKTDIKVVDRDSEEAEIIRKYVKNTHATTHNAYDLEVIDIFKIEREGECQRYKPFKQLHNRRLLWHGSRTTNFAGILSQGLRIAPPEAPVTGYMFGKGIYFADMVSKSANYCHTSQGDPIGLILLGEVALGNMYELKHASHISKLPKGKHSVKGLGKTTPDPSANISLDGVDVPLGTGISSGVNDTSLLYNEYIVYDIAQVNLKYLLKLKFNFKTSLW
Sequence of recombinant poly(ADP-ribose) polymerase 2 (PARP2) (Q9UGN5 whole entry): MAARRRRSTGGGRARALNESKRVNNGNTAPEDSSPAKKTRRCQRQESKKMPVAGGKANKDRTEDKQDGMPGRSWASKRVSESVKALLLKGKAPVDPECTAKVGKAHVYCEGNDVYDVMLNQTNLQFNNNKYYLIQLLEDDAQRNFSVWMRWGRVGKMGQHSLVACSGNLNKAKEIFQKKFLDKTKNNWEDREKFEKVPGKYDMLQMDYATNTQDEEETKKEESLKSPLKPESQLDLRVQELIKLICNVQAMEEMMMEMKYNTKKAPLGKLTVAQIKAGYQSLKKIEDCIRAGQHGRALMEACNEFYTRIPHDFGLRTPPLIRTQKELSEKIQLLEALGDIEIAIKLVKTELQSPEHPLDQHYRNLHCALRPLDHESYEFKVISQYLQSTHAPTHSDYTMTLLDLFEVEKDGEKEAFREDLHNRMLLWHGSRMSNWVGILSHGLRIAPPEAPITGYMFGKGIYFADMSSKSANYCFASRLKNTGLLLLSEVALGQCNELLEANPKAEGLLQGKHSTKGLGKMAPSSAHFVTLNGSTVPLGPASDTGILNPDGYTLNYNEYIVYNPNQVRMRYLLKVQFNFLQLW

Row | Structure (SMILES) | IC50 [1] | IC50 [2] | IC50 (MDA-MB-436 cells) | toxicity [3] | inhibitory activity against TNKS1/2 [4]
1 | CNC(=O)c1ccc(N2CCN(Cc3ccc4c([nH]c(=O)c5ccnn54)c3F)CC2)c(F)n1 [Example 95, 7-((4-(2-fluoro-6-(methylcarbamoyl)pyridin-3-yl)piperazin-1-yl)methyl)-6-fluoropyrazolo[1,5-a]quinoxalin-4(5H)-one] | 886 nM | 1.82 nM | 6.78 nM | – | –
2 | CNC(=O)c1ccc(N2CCN(Cc3ccc4c(c3)[nH]c(=O)c3c(Cl)cnn34)CC2)c(C)n1 [Example 98, 7-((4-(2-methyl-6-(methylcarbamoyl)pyridin-3-yl)piperazin-1-yl)methyl)-3-chloropyrazolo[1,5-a]quinoxalin-4(5H)-one] | 41 nM | 1.91 nM | 0.62 nM | – | –
3 | CNC(=O)c1ccc(N2CCN(Cc3ccc4c(c3)[nH]c(=O)c3cc(Cl)nn34)CC2)c(C)n1 [Example 100, 7-((4-(2-methyl-6-(methylcarbamoyl)pyridin-3-yl)piperazin-1-yl)methyl)-2-chloropyrazolo[1,5-a]quinoxalin-4(5H)-one] | 65.6 nM | 0.95 nM | 0.68 nM | – | –
4 | CNC(=O)c1ccc(N2CCN(Cc3ccc4c(c3)[nH]c(=O)c3c(C)c(C)nn34)CC2)c(C)n1 [Example 101, 7-((4-(2-methyl-6-(methylcarbamoyl)pyridin-3-yl)piperazin-1-yl)methyl)-2,3-dimethylpyrazolo[1,5-a]quinoxalin-4(5H)-one] | 35.6 nM | 4.43 nM | 2.48 nM | – | –
5 | CNC(=O)c1ccc(N2CCN(Cc3cc(C)c4c(c3)[nH]c(=O)c3ccnn34)CC2)c(C)n1 [Example 102, 7-((4-(2-methyl-6-(methylcarbamoyl)pyridin-3-yl)piperazin-1-yl)methyl)-9-methylpyrazolo[1,5-a]quinoxalin-4(5H)-one] | 101 nM | 6.91 nM | 2.24 nM | – | –
6 | CNC(=O)c1ccc(N2CCN(Cc3ccc4c([nH]c(=O)c5cc(Cl)nn54)c3F)CC2)c(C)n1 [Example 103, 7-((4-(2-methyl-6-(methylcarbamoyl)pyridin-3-yl)piperazin-1-yl)methyl)-6-fluoro-2-chloropyrazolo[1,5-a]quinoxalin-4(5H)-one] | 1250 nM | 0.76 nM | 1.17 nM | – | –
7 | CNC(=O)c1ccc(N2CCN(Cc3cc(F)c4c(c3)[nH]c(=O)c3sccc34)CC2)c(C)n1 [Example 114, 7-((4-(2-methyl-6-(methylcarbamoyl)pyridin-3-yl)piperazin-1-yl)methyl)-9-fluorothieno[2,3-c]quinolin-4(5H)-one] | 16.9 nM | 0.67 nM | 3.72 nM | – | –
8 | CNC(=O)c1ccc(N2CCN(Cc3ccc4c([nH]c(=O)c5cc(C)nn54)c3F)CC2)c(F)n1 [Example 115, 7-((4-(2-fluoro-6-(methylcarbamoyl)pyridin-3-yl)piperazin-1-yl)methyl)-6-fluoro-2-methylpyrazolo[1,5-a]quinoxalin-4(5H)-one] | 288 nM | 1.45 nM | 1.98 nM | – | –
9 | Cc1nc(C(=O)NCO)ccc1N1CCN(Cc2cc(F)c3c(c2)[nH]c(=O)c2ccnn23)CC1 [Example 117, 7-((4-(2-methyl-6-(N-(hydroxymethyl)carbamoyl)pyridin-3-yl)piperazin-1-yl)methyl)-9-fluoropyrazolo[1,5-a]quinoxalin-4(5H)-one] | 645 nM | 0.91 nM | 4.74 nM | – | –
10 | CNC(=O)c1ccc(N2CCN(Cc3cc(F)c4c(c3)[nH]c(=O)n3ccnc43)CC2)c(Cl)n1 [Example 119, 8-((4-(2-chloro-6-(methylcarbamoyl)pyridin-3-yl)piperazin-1-yl)methyl)-10-fluoroimidazo[1,2-c]quinazolin-5(6H)-one] | 9500 nM | 1.83 nM | 16.2 nM | – | –
11 | Cn1ncnc1[C@H]1c2n[nH]c(=O)c3cc(F)cc(c23)N[C@@H]1c1ccc(F)cc1 [Talazoparib] | – | – | – | toxicity similar to chemotherapy drugs such as hair loss | more potent inhibitory activity
